{"source": "patent US10376520B2", "about": "“Methods for the treatment of cardiovascular disorders” (Galapagos NV, priority 2015, dated 2019)", "system": "RA patients", "assay": "Total cholesterol determination, Study 1 (RA patients with inadequate response to methotrexate, add-on to MTX)", "type": "in vivo, human", "settings": "for [total cholesterol] Mean CFB / [Total cholesterol] Median CFB: Study 1 24 weeks results; for [total cholesterol] Mean percentage CFB - 24 weeks results: continued 25 mg b.i.d (N = 69)", "experimental": "Double-blind, placebo-controlled add on study in subjects with moderately to severely active RA who have an inadequate response to methotrexate (MTX) (oral or parenteral).\n595 subjects randomized to one of 6 dose regimens of Compound 1 (dosed as a [Compound 1:HCl:3H2O]) (3 dose levels administered either once or twice daily) or placebo on top of each subject's stable dose of MTX.\nCompound 1 (dosed as a [Compound 1:HCl:3H2O]) is dosed for twelve weeks once daily (q.d.) (50 mg, 100 mg or 200 mg) or twice daily (b.i.d.) (25 mg, 50 mg or 100 mg); or placebo.\nAt Week 12, the subjects on placebo who have not achieved 20% improvement in swollen joint count (SJC66) and tender joint count (TJC68) are re-randomized automatically to receive Compound 1 (dosed as a [Compound 1:HCl:3H2O]) either at 100 mg q.d. or 50 mg b.i.d. doses in a blinded fashion; subjects on 50 mg q.d. who have not achieved 20% improvement in SJC66 and TJC68 will be assigned to 100 mg q.d. and subjects on 25 mg b.i.d. that have not achieved a 20% improvement in SJC66 and TJC68 will be assigned to 50 mg b.i.d. Subjects who switch treatment at week 12 are handled as if they discontinued at week 12 for the purpose of statistical analysis, whereas subjects in the other groups will maintain their randomized treatment until Week 24.\nThis method is based on the determination of Δ^4 cholestenone after enzymatic cleavage of the cholesterol ester by cholesterol esterase, conversion of cholesterol by cholesterol oxidase, and subsequent measurement by the Trinder reaction of the hydrogen peroxide formed (Allain et al., 1974).\nCholesterol esters are cleaved by the action of cholesterol esterase to yield free cholesterol and fatty acids. Cholesterol oxidase then catalyzes the oxidation of cholesterol to cholest-4-en-3-one and hydrogen peroxide. In the presence of peroxidase, the hydrogen peroxide formed effects the oxidative coupling of phenol and 4-aminophenazone to form a red quinone-imine dye. The color intensity of the dye formed is directly proportional to the cholesterol concentration. It is determined by measuring the increase in absorbance.\nHuman serum and plasma samples cholesterol determination was done on a Roche/Hitachi Cobas c 701/702 system which automatically calculate the analyte concentration of each sample.", "key": {"[1]": {"settings": "placebo switched to 50 mg b.i.d at week 12, week 16"}, "[2]": {"settings": "placebo switched to 50 mg b.i.d at week 12, week 20"}, "[3]": {"settings": "placebo switched to 50 mg b.i.d at week 12, week 24"}}}
{"smiles": "O=C(Nc1nc2cccc(-c3ccc(CN4CCS(=O)(=O)CC4)cc3)n2n1)C1CC1", "note": "[Compound 1, cyclopropanecarboxylic acid {5-[4-(1,1-dioxo-thiomorpholin-4-ylmethyl)-phenyl]-[1,2,4]triazolo[1,5-a]pyridin-2yl}-amide]", "values": [{"measurement": "[total cholesterol] Mean CFB", "setting": "continued 100 mg b.i.d., week 2", "result": 0.36, "unit": "mmol/L"}, {"measurement": "[total cholesterol] Mean CFB", "setting": "continued 100 mg b.i.d., week 4", "result": 0.43, "unit": "mmol/L"}, {"measurement": "[total cholesterol] Mean CFB", "setting": "continued 100 mg b.i.d., week 8", "result": 0.64, "unit": "mmol/L"}, {"measurement": "[total cholesterol] Mean CFB", "setting": "continued 100 mg b.i.d., week 12", "result": 0.64, "unit": "mmol/L"}, {"measurement": "[total cholesterol] Mean CFB", "setting": "continued 100 mg b.i.d., week 16", "result": 0.56, "unit": "mmol/L"}, {"measurement": "[total cholesterol] Mean CFB", "setting": "continued 100 mg b.i.d., week 20", "result": 0.54, "unit": "mmol/L"}, {"measurement": "[total cholesterol] Mean CFB", "setting": "continued 100 mg b.i.d., week 24", "result": 0.66, "unit": "mmol/L"}, {"measurement": "[Total cholesterol] Median CFB", "setting": "continued 100 mg q.d., week 1", "result": 0.14, "unit": "mmol/L"}, {"measurement": "[total cholesterol] Mean CFB", "setting": "continued 100 mg q.d., week 1", "result": 0.15, "unit": "mmol/L"}, {"measurement": "[Total cholesterol] Median CFB", "setting": "continued 100 mg q.d., week 2", "result": 0.06, "unit": "mmol/L"}, {"measurement": "[total cholesterol] Mean CFB", "setting": "continued 100 mg q.d., week 2", "result": 0.10, "unit": "mmol/L"}, {"measurement": "[Total cholesterol] Median CFB", "setting": "continued 100 mg q.d., week 4", "result": 0.25, "unit": "mmol/L"}, {"measurement": "[total cholesterol] Mean CFB", "setting": "continued 100 mg q.d., week 4", "result": 0.23, "unit": "mmol/L"}, {"measurement": "[Total cholesterol] Median CFB", "setting": "continued 100 mg q.d., week 8", "result": 0.09, "unit": "mmol/L"}, {"measurement": "[total cholesterol] Mean CFB", "setting": "continued 100 mg q.d., week 8", "result": 0.14, "unit": "mmol/L"}, {"measurement": "[Total cholesterol] Median CFB", "setting": "continued 100 mg q.d., week 12", "result": 0.30, "unit": "mmol/L"}, {"measurement": "[total cholesterol] Mean CFB", "setting": "continued 100 mg q.d., week 12", "result": 0.23, "unit": "mmol/L"}, {"measurement": "[Total cholesterol] Median CFB", "setting": "continued 100 mg q.d., week 16", "result": 0.00, "unit": "mmol/L"}, {"measurement": "[total cholesterol] Mean CFB", "setting": "continued 100 mg q.d., week 16", "result": 0.06, "unit": "mmol/L"}, {"measurement": "[Total cholesterol] Median CFB", "setting": "continued 100 mg q.d., week 20", "result": 0.17, "unit": "mmol/L"}, {"measurement": "[total cholesterol] Mean CFB", "setting": "continued 100 mg q.d., week 20", "result": 0.13, "unit": "mmol/L"}, {"measurement": "[Total cholesterol] Median CFB", "setting": "continued 100 mg q.d., week 24", "result": 0.30, "unit": "mmol/L"}, {"measurement": "[total cholesterol] Mean CFB", "setting": "continued 100 mg q.d., week 24", "result": 0.21, "unit": "mmol/L"}, {"measurement": "[total cholesterol] Mean CFB", "setting": "continued 200 mg q.d., week 1", "result": 0.26, "unit": "mmol/L"}, {"measurement": "[total cholesterol] Mean CFB", "setting": "continued 200 mg q.d., week 2", "result": 0.29, "unit": "mmol/L"}, {"measurement": "[total cholesterol] Mean CFB", "setting": "continued 200 mg q.d., week 4", "result": 0.37, "unit": "mmol/L"}, {"measurement": "[total cholesterol] Mean CFB", "setting": "continued 200 mg q.d., week 8", "result": 0.44, "unit": "mmol/L"}, {"measurement": "[total cholesterol] Mean CFB", "setting": "continued 200 mg q.d., week 12", "result": 0.46, "unit": "mmol/L"}, {"measurement": "[total cholesterol] Mean CFB", "setting": "continued 200 mg q.d., week 16", "result": 0.37, "unit": "mmol/L"}, {"measurement": "[total cholesterol] Mean CFB", "setting": "continued 200 mg q.d., week 20", "result": 0.43, "unit": "mmol/L"}, {"measurement": "[Total cholesterol] Median CFB", "setting": "continued 200 mg q.d., week 24", "result": 0.37, "unit": "mmol/L"}, {"measurement": "[total cholesterol] Mean CFB", "setting": "continued 200 mg q.d., week 24", "result": 0.39, "unit": "mmol/L"}, {"measurement": "[total cholesterol] Mean CFB", "setting": "increased from 25 mg b.i.d. to 50 mg b.i.d at 12 weeks, week 1", "result": -0.05, "unit": "mmol/L"}, {"measurement": "[total cholesterol] Mean CFB", "setting": "increased from 25 mg b.i.d. to 50 mg b.i.d at 12 weeks, week 2", "result": -0.01, "unit": "mmol/L"}, {"measurement": "[total cholesterol] Mean CFB", "setting": "increased from 25 mg b.i.d. to 50 mg b.i.d at 12 weeks, week 4", "result": -0.26, "unit": "mmol/L"}, {"measurement": "[total cholesterol] Mean CFB", "setting": "increased from 25 mg b.i.d. to 50 mg b.i.d at 12 weeks, week 8", "result": -0.30, "unit": "mmol/L"}, {"measurement": "[total cholesterol] Mean CFB", "setting": "increased from 25 mg b.i.d. to 50 mg b.i.d at 12 weeks, week 12", "result": -0.13, "unit": "mmol/L"}, {"measurement": "[total cholesterol] Mean CFB", "setting": "increased from 25 mg b.i.d. to 50 mg b.i.d at 12 weeks, week 16", "result": 0.08, "unit": "mmol/L"}, {"measurement": "[total cholesterol] Mean CFB", "setting": "increased from 25 mg b.i.d. to 50 mg b.i.d at 12 weeks, week 20", "result": -0.44, "unit": "mmol/L"}, {"measurement": "[total cholesterol] Mean CFB", "setting": "increased from 25 mg b.i.d. to 50 mg b.i.d at 12 weeks, week 24", "result": -0.09, "unit": "mmol/L"}, {"measurement": "[total cholesterol] Mean CFB", "setting": "increased from 50 mg q.d. to 100 mg q.d. at 12 weeks, week 1", "result": 0.05, "unit": "mmol/L"}, {"measurement": "[total cholesterol] Mean CFB", "setting": "increased from 50 mg q.d. to 100 mg q.d. at 12 weeks, week 2", "result": 0.26, "unit": "mmol/L"}, {"measurement": "[total cholesterol] Mean CFB", "setting": "increased from 50 mg q.d. to 100 mg q.d. at 12 weeks, week 4", "result": 0.11, "unit": "mmol/L"}, {"measurement": "[total cholesterol] Mean CFB", "setting": "increased from 50 mg q.d. to 100 mg q.d. at 12 weeks, week 8", "result": 0.10, "unit": "mmol/L"}, {"measurement": "[total cholesterol] Mean CFB", "setting": "increased from 50 mg q.d. to 100 mg q.d. at 12 weeks, week 12", "result": 0.10, "unit": "mmol/L"}, {"measurement": "[total cholesterol] Mean CFB", "setting": "increased from 50 mg q.d. to 100 mg q.d. at 12 weeks, week 16", "result": 0.37, "unit": "mmol/L"}, {"measurement": "[total cholesterol] Mean CFB", "setting": "increased from 50 mg q.d. to 100 mg q.d. at 12 weeks, week 20", "result": 0.34, "unit": "mmol/L"}, {"measurement": "[total cholesterol] Mean CFB", "setting": "increased from 50 mg q.d. to 100 mg q.d. at 12 weeks, week 24", "result": 0.25, "unit": "mmol/L"}, {"measurement": "[Total cholesterol] Median CFB", "setting": "[1]", "result": 0.25, "unit": "mmol/L"}, {"measurement": "[total cholesterol] Mean CFB", "setting": "[1]", "result": 0.08, "unit": "mmol/L"}, {"measurement": "[Total cholesterol] Median CFB", "setting": "[2]", "result": 0.25, "unit": "mmol/L"}, {"measurement": "[total cholesterol] Mean CFB", "setting": "[2]", "result": 0.18, "unit": "mmol/L"}, {"measurement": "[Total cholesterol] Median CFB", "setting": "[3]", "result": 0.36, "unit": "mmol/L"}, {"measurement": "[total cholesterol] Mean CFB", "setting": "[3]", "result": 0.06, "unit": "mmol/L"}, {"measurement": "[total cholesterol] Mean CFB", "setting": "placebo switched to 100 mg q.d. at week 12, week 16", "result": -0.16, "unit": "mmol/L"}, {"measurement": "[total cholesterol] Mean CFB", "setting": "placebo switched to 100 mg q.d. at week 12, week 20", "result": -0.17, "unit": "mmol/L"}, {"measurement": "[total cholesterol] Mean CFB", "setting": "placebo switched to 100 mg q.d. at week 12, week 24", "result": -0.26, "unit": "mmol/L"}, {"measurement": "[total cholesterol] Mean percentage CFB - 24 weeks results", "setting": "week 1", "result": 2.56, "unit": "%"}, {"measurement": "[total cholesterol] Mean percentage CFB - 24 weeks results", "setting": "week 2", "result": 3.22, "unit": "%"}, {"measurement": "[total cholesterol] Mean percentage CFB - 24 weeks results", "setting": "week 4", "result": 4.05, "unit": "%"}, {"measurement": "[total cholesterol] Mean percentage CFB - 24 weeks results", "setting": "week 8", "result": 4.25, "unit": "%"}]}
